Measurements reported in US6875761B2 (Eisai Co., Ltd., priority 1997, dated 2005).
Counter-ions that a name gives are not always drawn.

Row | SMILES | melting point
1 | CCN1CCN(c2nc(-c3ccc(OCCCC(C)(C)O)cc3)cc3sccc23)CC1 (as salt: hydrochloride) [Example 292, 6-[4-(4-methyl-4-hydroxypentyloxy)phenyl]-4-(4-ethylpiperazin-1-yl)thieno[3,2-c]pyridine] | 116 to 118 °C
2 | CCN1CCN(c2nc(-c3cccc(OCCO)c3)cc3ccoc23)CC1 (as salt: hydrochloride) [Example 298, 7-(1-ethylpiperazin-4-yl)-5-[3-(2-hydroxyethoxy)phenyl]furo[2,3-c]pyridine dihydrochloride] | 117 to 121 °C
3 | CCN1CCN(c2nc(-c3ccc(CCCO)cc3)cc3ccoc23)CC1 (as salt: hydrochloride) [Example 299, 7-(1-ethylpiperazin-4-yl)-5-[4-(3-hydroxypropyl)phenyl]furo[2,3-c]pyridine dihydrochloride] | 126 to 130 °C
4 | CCN1CCN(c2nc(-c3ccc(CCC(C)O)cc3)cc3ccoc23)CC1 (stereo not shown) (as salt: hydrochloride) [Example 300, 7-(1-ethylpiperazin-4-yl)-5-[4-(3-hydroxybutyl)phenyl]furo[2,3-c]pyridine dihydrochloride] | 175 to 177 °C
5 | CCN1CCN(c2nc(-c3ccc(OCC(C)(C)O)cc3)cc3ccccc23)CC1 (as salt: hydrochloride) [Example 309, 1-(1-ethylpiperazin-4-yl)-3-[4-(2-hydroxy-2-methylpropoxy)phenyl]isoquinoline dihydrochloride] | 129 to 134 °C
6 | COc1ccc(-c2cc3ccccc3c(N3CCN(CC(N)=O)CC3)n2)cc1 (as salt: hydrochloride) [Example 314, 1-[1-(carbamoylmethyl)piperazin-4-yl]-3-(4-methoxyphenyl)isoquinoline dihydrochloride] | 153 to 155 °C

Now from value to molecule:

Row | melting point | SMILES
7 | 133 to 135 °C | CCCN1CCN(c2nc(-c3ccc(OCC(C)(C)O)cc3)cc3sccc23)CC1 (as salt: hydrochloride) [Example 289, 6-[4-(2-methyl-2-hydroxypropoxy)phenyl]-4-(4-propylpiperazin-1-yl)thieno[3,2-c]pyridine hydrochloride]
8 | 116 to 117.5 °C | CCN1CCN(c2nc(-c3ccc(CCC(C)(C)O)cc3)cc3sccc23)CC1 (as salt: hydrochloride) [Example 291, 4-[4-ethylpiperazin-1-yl)-6-[4-(3-hydroxy-3-methylbutyl)phenyl]thieno[3,2-c]pyridine dihydrochloride]
9 | 128 to 130 °C | CCCN1CCN(c2nc(-c3ccc(OCCO)cc3)cc3sccc23)CC1 (as salt: hydrochloride) [Example 293, 4-(4-propylpiperazin-1-yl)-6-[4-(2-hydroxyethoxy)phenyl]thieno[3,2-c]pyridine]
10 | 135 to 137 °C | CC(C)(O)COc1ccc(-c2cc3sccc3c(N3CCN(CCF)CC3)n2)cc1 (as salt: hydrochloride) [Example 294, 6-[4-(2-methyl-2-hydroxypropoxy)phenyl]-4-[4-(2-fluoroethyl)piperazin-1-yl]thieno[3,2-c]pyridine]
11 | 138 to 140 °C | OCCOc1ccc(-c2cc3sccc3c(N3CCN(CCF)CC3)n2)cc1 (as salt: hydrochloride) [Example 295, 4-[4-(2-fluoroethyl)piperazin-1-yl]-6-[4-(2-hydroxyethoxy)phenyl]thieno[3,2-c]pyridine]
12 | 139 to 142 °C | CC(C)(O)COc1ccc(-c2cc3sccc3c(N3CCN(CCO)CC3)n2)cc1 (as salt: hydrochloride) [Example 296, 6-[4-(2-methyl-2-hydroxypropoxy)phenyl]-4-[4-(2-hydroxyethyl)piperazin-1-yl]thieno]3,2-c]pyridine hydrochloride]
13 | 140 to 142 °C | CC(C)(O)COc1ccc(-c2cc3sccc3c(N3CCN(CCc4ccccc4)CC3)n2)cc1 (as salt: hydrochloride) [Example 297, 6-[4-(2-methyl-2-hydroxypropoxy)phenyl]-4-[4-(2-phenylethyl)piperazin-1-yl]thieno[3,2-c]pyridine]
